Tested on: KDM5A and KDM5B
Experiment: In vitro cell-based assay: tri-methyl H3K4 immuno-blotting in ZR-75-1 breast cancer cells
Settings: 72 hr, read-out: Cellular IC50
Description: This quantitative immuno-blotting assay measures the amount tri-methylated histone H3 at amino acid Lysine number 4, a specific substrate […] of the direct enzymatic activity of the histone demethylases KDM5A and KDM5B from extracts of the ZR-75-1 breast cancer cell line.
This assay is a fluorometric immunoassay for the quantification of tri-methyl H3K4 extracted from cells treated with test compound and is used as a measure of the cellular inhibition of KDM5A/B.
Extracts were prepared containing all of the cellular histone material using detergent based lysis and sonication methods. These lysates were subsequently normalized for total protein content using a colorimetric bicinchonic acid assay (MicroBCA Pierce/Thermo Scientific). Normalized cell extracts were then subjected to typical immuno-blotting procedures using NuPage reagents (Life Technologies). […] The amount of tri-methylated lysine 4 of histone H3 was detected using an antibody specific to the tri-methylated state (Cell Signaling Technologies) and quantified on an infrared imager using a densitometry software package (Odyssey CLx, Image Studio, Li-Cor). This background subtracted densitometry value was reported as a ration of the GAPDH amount for that sample and then calculated as a percent of the DMSO treated sample.

For `O=C(O)c1ccncc1Nc1cn(C2CCOC2)c2ccc(F)cc12` (stereo not shown) [Example 68, 3-{[5-fluoro-1-(tetrahydrofuran-3-yl)-1H-indol-3-yl]amino}pyridine-4-carboxylic acid], the IC50 was 1 to 10 µM.
